17 molecules from patent US20250262222A1, “HETEROCYCLIC COMPOUNDS, COMPOSITIONS THEREOF, AND METHODS OF TREATMENT THEREWITH” (BeiGene Switzerland GmbH, priority 2022, published 2025) can be followed below.

Molecules are shown by their SMILES.

One assay has as its system pERK1/2(THR202/TYR204) level in AsPC-1 cell line. The assay can be described thus: KRAS G12D pERK assay. The format is cell-based. The following applies: AsPC-1 cells, 2 h compound treatment, HTRF. The protocol: (§1) AsPC-1 cell line was used in this study. Cells were maintained in RPMI-1640 supplemented with 10% fetal bovine serum (Thermo Fisher), 50 units/mL penicillin and streptomycin (Thermo Fisher) and kept at 37° C. in a humidified atmosphere of 5% CO2 in air. Cells were reinstated from frozen stocks that were laid down within 30 passages from the original cells purchased. 30000 cells per well were seeded into a 96-well plate and incubated overnight. Cells were treated with a 10-point dilution series. The final compound concentration is from 0 to 10 μM. After 2 h compound treatment, cells were lysed, and the pERK1/2(THR202/TYR204) level in the cell lysates was detected by HTRF kit (Cisbio). In brief, a total of 16 μL of cell lysate from each well of a 96-well plate was transferred to a 384-well white assay plate. Lysate from each well was incubated with 2 μL of Eu3+-cryptate (donor) labeled anti-phospho-ERK1/2 and 2 μL of D2 (acceptor) labeled anti-phospho-ERK1/2 antibodies (Cisbio) overnight in dark at room temperature. When donor and acceptor are in close proximity, excitation of the donor with laser triggers a Fluorescence Resonance Energy Transfer (FRET) towards the acceptor, which in turn fluoresces at 655 nm wavelength. FRET signals were measured using a PHERAstar FSX reader (BMG Labtech). IC50 determination was performed by fitting the curve of percent inhibition versus the log of the inhibitor concentration using Dotmatics.
A general note: Time-resolved FRET reads energy transfer from a long-lived donor to a nearby acceptor.
`Nc1cc(Cl)c(C(F)(F)F)c(-c2nc3c4c(nc(OC[C@@]56CCCN5C[C@H](F)C6)nc4c2F)N2C[C@H]4CC[C@H](N4)C2CCO3)c1` (single isomer, unassigned) [Example 24] displayed an IC50 of 4.4 nM.

The assay is the same for the next values; noted with them: Homo sapiens, ASPC1, 2 h, AsPC-1 cells, 2 h compound treatment, HTRF.
`Cc1cc(N)cc(-c2nc3c4c(nc(OCC56CCC(C)(C5)OC6)nc4c2F)N2C[C@H]4CC[C@H](N4)[C@H]2CCO3)c1C(F)(F)F` [Example 51, 3-((6aR,7S,10R)-1-fluoro-13-((1-methyl-2-oxabicyclo[2.2.1]heptan-4-yl)methoxy)-5,6,6a,7,8,9,10,11-octahydro-4-oxa-3,11a,12,14,15-pentaaza-7,10-methanocyclohepta[4,5]cyclo-octa[1,2,3-de]naphthalen-2-yl)-5-methyl-4-(trifluoromethyl)aniline]: the half-maximal inhibitory concentration (IC50) is 272 nM. This counts as sub-micromolar. Regarding `Nc1cc(Cl)c(C(F)(F)F)c(-c2nc3c4c(nc(OCC56COC(CF)(C5)C6)nc4c2F)N2C[C@H]4CC[C@H](N4)[C@H]2CCO3)c1` [Example 50, 3-chloro-5-((6aR,7S,10R)-1-fluoro-13-((1-(fluoromethyl)-2-oxabicyclo[2.1.1]hexan-4-yl)methoxy)-5,6,6a,7,8,9,10,11-octahydro-4-oxa-3,11a,12,14,15-pentaaza-7,10-methanocyclohepta[4,5]cyclo-octa[1,2,3-de]naphthalen-2-yl)-4-(trifluoromethyl)aniline], the concentration for half-maximal inhibition (IC50) came to 109 nM. Same read-out and setting: in the case of `Nc1cc(Cl)c(C(F)(F)F)c(-c2nc3c4c(nc(OCC56COCC(C5)C6)nc4c2F)N2C[C@H]4CC[C@H](N4)[C@H]2CCO3)c1` [Example 67, 3-((6aR,7S,10R)-13-((3-oxabicyclo[3.1.1]heptan-1-yl)methoxy)-1-fluoro-5,6,6a,7,8,9,10,11-octahydro-4-oxa-3,11a,12,14,15-pentaaza-7,10-methanocyclohepta[4,5]cyclo-octa[1,2,3-de]naphthalen-2-yl)-5-chloro-4-(trifluoromethyl)aniline] it was 169 nM; in that of `COCC1(COc2nc3c4c(nc(-c5cc(N)cc(Cl)c5C(F)(F)F)c(F)c4n2)OCC[C@@H]2[C@@H]4CC[C@H](CN32)N4)COC1` [Example 62, 3-chloro-5-((6aR,7S,10R)-1-fluoro-13-((3-(methoxymethyl)oxetan-3-yl)methoxy)-5,6,6a,7,8,9,10,11-octahydro-4-oxa-3,11a,12,14,15-pentaaza-7,10-methanocyclohepta[4,5]cyclo-octa[1,2,3-de]naphthalen-2-yl)-4-(trifluoromethyl)aniline], 346 nM. Same read-out and setting: the same measure for `COC(=O)N1CC(C)(COc2nc3c4c(nc(-c5cc(N)cc(C)c5C(F)(F)F)c(F)c4n2)OCC[C@@H]2[C@@H]4CC[C@H](CN32)N4)C1` [Example 43, methyl 3-((((6aR,7S,10R)-2-(5-amino-3-methyl-2-(trifluoromethyl)phenyl)-1-fluoro-5,6,6a,7,8,9,10,11-octahydro-4-oxa-3,11a,12,14,15-pentaaza-7,10-methanocyclohepta[4,5]cyclo-octa[1,2,3-de]naphthalen-13-yl)oxy)methyl)-3-methylazetidine-1-carboxylate]: 584 nM; for `CC12CC(COc3nc4c5c(nc(-c6cc(N)cc(Cl)c6C(F)(F)F)c(F)c5n3)OCC[C@@H]3[C@@H]5CC[C@H](CN43)N5)(CO1)C2` [Example 34, 3-chloro-5-((6aR,7S,10R)-1-fluoro-13-((1-methyl-2-oxabicyclo[2.1.1]hexan-4-yl)methoxy)-5,6,6a,7,8,9,10,11-octahydro-4-oxa-3,11a,12,14,15-pentaaza-7,10-methanocyclohepta[4,5]cyclo-octa[1,2,3-de]naphthalen-2-yl)-4-(trifluoromethyl)aniline]: 82 nM.

In a further assay the test system is pERK1/2(THR202/TYR204) level in SW620 cell line. Description: KRAS G12V pERK assay. The format is cell-based. Particulars: Homo sapiens, SW-620; SW620 cells, 2 hrs compound treatment, HTRF. The protocol: as §1, with “SW620 cell” for “AsPC-1 cell”, “in RPMI 1640” for “in RPMI-1640”, “purchased. 40000” for “purchased. 30000”, “2 hrs” for “2 h”
`Nc1cc(Cl)c(C(F)(F)F)c(-c2nc3c4c(nc(OC[C@@]56CCCN5C[C@H](F)C6)nc4c2F)N2CCOCCC2CO3)c1` (stereo partly drawn) [Example 21, 3-chloro-5-(1-fluoro-12-(((2R,7aS)-2-fluorotetrahydro-1H-pyrrolizin-7a(5H)-yl)methoxy)-5,5a,6,7,9,10-hexahydro-4,8-dioxa-3,10a,11,13-tetraazanaphtho[1,8-ab]heptalen-2-yl)-4-(trifluoromethyl)aniline] yielded an IC50 of 74 nM. Regarding `Nc1cc(Cl)c(C(F)(F)F)c(-c2nc3c4c(nc(OC[C@@]56CCCN5C[C@H](F)C6)nc4c2F)N2CCOC[C@H]2CO3)c1` [Example 3, 3-chloro-5-((S)-1-fluoro-11-(((2R,7aS)-2-fluorotetrahydro-1H-pyrrolizin-7a(5H)-yl)methoxy)-5a,6,8,9-tetrahydro-5H-4,7-dioxa-3,9a,10,12-tetraazabenzo[4,5]cyclohepta[1,2,3-de]naphthalen-2-yl)-4-(trifluoromethyl)aniline], the IC50 is 133 nM. Same read-out and setting: in the case of `N#Cc1c(N)sc2c(F)ccc(-c3c(Cl)c4c5c(nc(OC[C@@]67CCCN6C[C@H](F)C7)nc5c3F)N3CCOC[C@H]3CO4)c12` (single isomer, unassigned) [Example 14-Isomer 2] it was 33 nM; in that of `C#Cc1c(F)ccc2cc(O)cc(-c3nc4c5c(nc(OC[C@@]67CCCN6C[C@H](F)C7)nc5c3F)N3CCCOC[C@H]3CO4)c12` [Example 20, 5-ethynyl-6-fluoro-4-((S)-1-fluoro-12-(((2R,7aS)-2-fluorotetrahydro-1H-pyrrolizin-7a(5H)-yl)methoxy)-5a,6,9,10-tetrahydro-5H,8H-4,7-dioxa-3,10a,11,13-tetraazanaphtho[1,8-ab]heptalen-2-yl)naphthalen-2-ol], 1.3 nM; in that of `C#Cc1c(F)ccc2cc(O)cc(-c3nc4c5c(nc(OC[C@@]67CCCN6C[C@H](F)C7)nc5c3F)N3CCOCCC3CO4)c12` (stereo partly drawn) [Example 22, 5-ethynyl-6-fluoro-4-(1-fluoro-12-(((2R,7aS)-2-fluorotetrahydro-1H-pyrrolizin-7a(5H)-yl)methoxy)-5,5a,6,7,9,10-hexahydro-4,8-dioxa-3,10a,11,13-tetraazanaphtho[1,8-ab]heptalen-2-yl)naphthalen-2-ol], 13 nM.

Take `N#Cc1c(N)sc2c(F)ccc(-c3c(Cl)c4c5c(nc(OC[C@@]67CCCN6C[C@H](F)C7)nc5c3F)N3C5CCC3(COC5)CO4)c12` (stereo partly drawn) [Example 15, 2-amino-4-(11-chloro-9-fluoro-7-(((2R,7aS)-2-fluorotetrahydro-1H-pyrrolizin-7a(5H)-yl)methoxy)-3,4-dihydro-1H,13H-4,13a-ethano[1,4]oxazino[3′,4′:3,4][1,4]oxazepino[5,6,7-de]quinazolin-10-yl)-7-fluorobenzo[b]thiophene-3-carbonitrile]: the IC50 turned out to be 83 nM. On the same count and under the same terms, the same measure for `Nc1cc(Cl)c(C(F)(F)F)c(-c2nc3c4c(nc(OC[C@@]56CCCN5C[C@H](F)C6)nc4c2F)N2CCOC[C@@H]2CCO3)c1` [Example 16, 3-chloro-5-((S)-1-fluoro-12-(((2R,7aS)-2-fluorotetrahydro-1H-pyrrolizin-7a(5H)-yl)methoxy)-5,6,6a,7,9,10-hexahydro-4,8-dioxa-3,10a,11,13-tetraazabenzo[4,5]cycloocta[1,2,3-de]naphthalen-2-yl)-4-(trifluoromethyl)aniline]: 24 nM; for `N#Cc1c(N)sc2c(F)ccc(-c3c(Cl)c4c5c(nc(OC[C@@]67CCCN6C[C@H](F)C7)nc5c3F)N3CCOC[C@@H]3CCO4)c12` [Example 18]: 30 nM.

Regarding `Oc1cc(Cl)c(C2CC2)c(-c2nc3c4c(nc(OC[C@@]56CCCN5C[C@H](F)C6)nc4c2F)N2CCOC[C@H]2CO3)c1` [Example 6, 3-chloro-4-cyclopropyl-5-((S)-1-fluoro-11-(((2R,7aS)-2-fluorotetrahydro-1H-pyrrolizin-7a(5H)-yl)methoxy)-5a,6,8,9-tetrahydro-5H-4,7-dioxa-3,9a,10,12-tetraazabenzo[4,5]cyclohepta[1,2,3-de]naphthalen-2-yl)phenol], the IC50 came out at 118 nM. Still for that read-out and setting: in the case of `C#Cc1c(F)ccc2cc(O)cc(-c3cc4c5c(nc(OC[C@@]67CCCN6C[C@H](F)C7)nc5c3F)N3CCOC[C@H]3CO4)c12` [Example 2, 5-ethynyl-6-fluoro-4-((S)-4-fluoro-2-(((2R,7aS)-2-fluorotetrahydro-1H-pyrrolizin-7a(5H)-yl)methoxy)-8a,9,11,12-tetrahydro-8H-[1,4]oxazino[3′,4′:3,4][1,4]oxazepino[5,6,7-de]quinazolin-5-yl)naphthalen-2-ol] it was 178 nM.

What is called IC50 is the concentration needed to halve the response being measured. Low readings indicate higher potency, high ones lower potency.
